# Values of other authors, collected in patent US20240082224A1, “METHODS OF TREATING HEMATOLOGICAL MALIGNANCY USING NANOPARTICLE MTOR INHIBITOR COMBINATION THERAPY” (Abraxis BioScience, LLC, priority 2015, published 2024).
# What was measured:
# [1] = in vivo
# ABCB1 = ABCB1 (Homo sapiens, UniProt P08183)
# ABCG2 = target: T1, ABCG2 (Homo sapiens, UniProt Q9UNQ0)
# T1 sequence (Q9UNQ0 1-655): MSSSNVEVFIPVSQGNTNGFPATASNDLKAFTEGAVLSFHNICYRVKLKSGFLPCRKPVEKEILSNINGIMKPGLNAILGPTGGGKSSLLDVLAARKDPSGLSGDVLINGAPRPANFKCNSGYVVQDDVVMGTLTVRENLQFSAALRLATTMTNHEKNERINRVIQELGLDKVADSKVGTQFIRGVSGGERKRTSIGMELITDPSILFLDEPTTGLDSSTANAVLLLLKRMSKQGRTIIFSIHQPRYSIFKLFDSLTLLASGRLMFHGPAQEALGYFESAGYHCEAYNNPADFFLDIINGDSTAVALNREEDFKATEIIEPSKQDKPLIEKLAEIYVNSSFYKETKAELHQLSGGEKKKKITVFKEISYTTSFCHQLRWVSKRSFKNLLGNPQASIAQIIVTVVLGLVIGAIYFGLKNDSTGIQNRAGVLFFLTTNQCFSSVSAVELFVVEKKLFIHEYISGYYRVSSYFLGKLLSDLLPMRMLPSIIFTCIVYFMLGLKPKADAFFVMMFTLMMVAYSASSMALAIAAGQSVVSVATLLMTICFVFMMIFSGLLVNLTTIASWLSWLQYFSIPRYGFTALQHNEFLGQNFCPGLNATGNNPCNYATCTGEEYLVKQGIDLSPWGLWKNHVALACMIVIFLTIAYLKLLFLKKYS
# ABCB1, sequence (P08183 whole entry, species assumed): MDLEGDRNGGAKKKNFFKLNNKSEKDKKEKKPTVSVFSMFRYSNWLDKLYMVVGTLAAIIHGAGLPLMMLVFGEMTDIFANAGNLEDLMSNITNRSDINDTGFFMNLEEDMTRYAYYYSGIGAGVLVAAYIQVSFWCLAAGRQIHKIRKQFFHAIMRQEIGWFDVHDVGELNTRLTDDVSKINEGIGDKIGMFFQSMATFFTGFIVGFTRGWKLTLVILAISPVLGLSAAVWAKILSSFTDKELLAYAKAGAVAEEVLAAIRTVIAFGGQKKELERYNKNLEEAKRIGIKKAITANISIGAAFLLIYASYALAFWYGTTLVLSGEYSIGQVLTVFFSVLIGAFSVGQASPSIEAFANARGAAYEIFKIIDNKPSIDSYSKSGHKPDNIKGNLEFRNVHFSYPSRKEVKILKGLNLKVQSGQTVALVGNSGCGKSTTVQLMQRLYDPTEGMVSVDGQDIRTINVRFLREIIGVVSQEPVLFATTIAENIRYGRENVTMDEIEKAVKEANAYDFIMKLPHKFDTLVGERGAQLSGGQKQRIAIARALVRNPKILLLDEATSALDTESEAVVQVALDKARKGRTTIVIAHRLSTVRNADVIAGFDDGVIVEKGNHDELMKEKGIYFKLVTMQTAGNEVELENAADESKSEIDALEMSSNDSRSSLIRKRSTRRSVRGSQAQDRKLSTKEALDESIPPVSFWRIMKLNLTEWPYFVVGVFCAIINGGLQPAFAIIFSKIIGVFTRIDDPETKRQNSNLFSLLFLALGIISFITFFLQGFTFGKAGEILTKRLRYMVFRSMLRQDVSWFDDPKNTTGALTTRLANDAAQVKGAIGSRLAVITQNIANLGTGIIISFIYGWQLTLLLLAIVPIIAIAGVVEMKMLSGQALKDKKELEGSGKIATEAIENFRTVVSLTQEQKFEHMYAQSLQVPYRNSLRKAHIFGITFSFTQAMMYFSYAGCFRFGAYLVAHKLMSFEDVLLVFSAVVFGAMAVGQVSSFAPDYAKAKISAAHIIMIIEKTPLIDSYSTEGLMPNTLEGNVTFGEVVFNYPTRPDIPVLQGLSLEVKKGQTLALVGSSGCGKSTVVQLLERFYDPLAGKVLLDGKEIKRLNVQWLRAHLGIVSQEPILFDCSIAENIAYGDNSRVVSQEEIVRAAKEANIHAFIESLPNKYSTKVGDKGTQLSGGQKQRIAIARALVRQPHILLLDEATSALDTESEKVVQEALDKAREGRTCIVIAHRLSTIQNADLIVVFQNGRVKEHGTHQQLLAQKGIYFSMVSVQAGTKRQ
SMILES,brain penetration [1],affinity for ABCB1 (ABCB1),affinity for ABCG2 (ABCG2),CML patients who respond (CML patients; imatinib),patients progressing to advanced disease (CML patients; within 5 years)
COc1ccc(COc2cc3oc(=O)c4cc(C(C)O)ccc4c3cc2OC)cc1 (centres unmarked) [Palomid 529],good brain penetration,lacks affinity,lacks affinity,–,–
Cc1ccc(NC(=O)c2ccc(CN3CCN(C)CC3)cc2)cc1Nc1nccc(-c2cccnc2)n1 [imatinib],–,–,–,80%,under 3%
